The assay deals with Human synovial cells derived from a patient with rheumatism (HFLS-RA). Briefly: Hyaluronic acid synthesis by synovial cells ([3H] glucosamine incorporation, HPLC fractionation by molecular weight). It is filed as cell-based. The settings on record: Example 4, HFLS-RA, 48 hours. Here is the method:
Compound 1 or sodium hyaluronate (HA) (ARTZ Dispo (registered trademark) (manufactured by Seikagaku Corporation)) was mixed in a solution containing a phosphate buffer solution (GIBCO) and an α-MEM (GIBCO) concentrated medium. Further, each reagent was added and mixed in the resulting solution so that the final concentrations were as follows: 10% (v/v) fetal bovine serum (hereinafter FBS (MP Biomedicals)), 10 ng/mL recombinant human IL-1β/IL-1F2 (hereinafter IL-1β (R & D Systems)), 1% (w/v) penicillin/streptomycin (GIBCO), and 370 kBq/mL [^3H] glucosamine (Perkin Elmer). As a result, the following five solutions were obtained as test substances.
Human synovial cells derived from a patient with rheumatism (HFLS-RA, CELL APPLICATIONS, INC.) were subcultured and grown in a 175-cm^2 flask. In the cell culture, Basal medium (containing 10% (v/v) Growth supplement and 1% (w/v) penicillin/streptomycin) (manufactured by Cell Applications, Inc.) was used. Thereafter, the cells were seeded in a 6-well plate at 3.0×10^5 cells/2 mL/well and cultured for about 24 hours until confluence was reached. In the cell culture, α-MEM medium (containing 10% (v/v) FBS and 1% (w/v) penicillin/streptomycin) was used. After removing the culture supernatant, 2 mL of the test substance was added to the cells, and the cells were further cultured for 48 hours. The culture was performed at 37° C. in a CO2 incubator (5% (v/v) CO2). After completion of the culture, the culture supernatant was collected and cryopreserved in an ultra-low temperature freezer until measurement.
Since glucosamine is a constituent monosaccharide of hyaluronic acid, in hyaluronic acid newly synthesized in the cells after addition of the test substance, [^3H] glucosamine is incorporated. Therefore, hyaluronic acid in the collected culture supernatant was separated according to molecular weight using HPLC, and fractions were collected every 0.5 minutes using a fraction collector. To each of the collected fractions, 0.5 mL of a scintillation fluid was added and mixed. Thereafter, the radioactivity (dpm, disintegrations per minute) of each fraction was measured using a scintillation counter, and the radioactivity (the amount of [^3H] glucosamine incorporated into newly produced hyaluronic acid) was evaluated. The HPLC conditions are as follows.
Mobile phase: a solution of 5 mmol/L phosphate buffer solution (pH 6.0) with 0.82% (w/v) NaCl:acetonitrile=2:1 (v:v)
Column: OH pak SB-805 HQ column (Shodex (registered trademark)), column temperature: 35° C.
The hyaluronic acid standard solution was separated by HPLC, and UV absorption at a wavelength of 210 nm was measured. Fraction No. in which the peak top of the hyaluronic acid standard solution of each molecular weight is collected was calculated. As the hyaluronic acid standard solutions, Select-HATM 500 k (average molecular weight: 528,000), Select-HATM 1,000 k (average molecular weight: 1,076,000), and Select-HATM 2,500 k (average molecular weight: 2,420,000) were used.
The same procedure as in Example 1 was performed. Note that the culture supernatant was collected at respective time points (8, 24, 36, 48, and 72 hours) after adding the test substance to the cells.
A control solution, a 0.01% (w/v %) compound 1 solution, and a 0.01% (w/v %) sodium hyaluronate (HA) solution were prepared in the same manner as in Example 1. DF-Na (0.014 μg/mL, 0.14 μg/mL, 1.4 μg/mL, and 14 μg/mL) solutions were prepared by dissolving DF-Na in the control solution. Further, a HA+DF-Na mixed liquid was obtained by dissolving DF-Na (1.4 μg/mL) in the 0.01% (w/v %) sodium hyaluronate (HA) solution.
The same procedure as in Example 1 was performed.
The same procedure as in Example 1 was performed. Note that a column (OH pak SB-807 HQ column (Shodex (registered trademark)) having higher separability on the high molecular weight side than the HPLC column (OH pak SB-805 HQ column (Shodex (registered trademark)) was used.

With `O=C(O)Cc1ccccc1Nc1c(Cl)cccc1Cl` [DF-Na, diclofenac sodium, reference compound], the “action of producing high molecular weight hyaluronic acid observed in the compound 1 group” value (0.01% HA, DF-Na 1.4 μg/mL, or both mixed) is reported as “not observed”. Moreover, where the note is “DF-Na 1.4 μg/mL”, the “molecular weight peak of hyaluronic acid produced” value is ~500,000. The “action of promoting hyaluronic acid synthesis” value (DF-Na 0.014 to 14 μg/mL) is on record as “not observed at any concentration”.

The values are drawn from US20210052633A1, “HYALURONIC ACID SYNTHESIS PROMOTER, METHOD FOR PROMOTING HYALURONIC ACID SYNTHESIS, AND CELL EVALUATION METHOD” (SEIKAGAKU CORPORATION, priority 2018, published 2021).
